Assay results as given in ChEMBL document CHEMBL5380794, “Discovery of a Potent and Selective STAT5 PROTAC Degrader with Strong Antitumor Activity In Vivo in Acute Myeloid Leukemia” (J Med Chem, 2023).

target: T1, Signal transducer and activator of transcription 5B (Homo sapiens, UniProt P51692); test: Binding affinity to STAT5B (unknown origin) assessed as inhibition constant by FP assay
T1 sequence (P51692 whole entry): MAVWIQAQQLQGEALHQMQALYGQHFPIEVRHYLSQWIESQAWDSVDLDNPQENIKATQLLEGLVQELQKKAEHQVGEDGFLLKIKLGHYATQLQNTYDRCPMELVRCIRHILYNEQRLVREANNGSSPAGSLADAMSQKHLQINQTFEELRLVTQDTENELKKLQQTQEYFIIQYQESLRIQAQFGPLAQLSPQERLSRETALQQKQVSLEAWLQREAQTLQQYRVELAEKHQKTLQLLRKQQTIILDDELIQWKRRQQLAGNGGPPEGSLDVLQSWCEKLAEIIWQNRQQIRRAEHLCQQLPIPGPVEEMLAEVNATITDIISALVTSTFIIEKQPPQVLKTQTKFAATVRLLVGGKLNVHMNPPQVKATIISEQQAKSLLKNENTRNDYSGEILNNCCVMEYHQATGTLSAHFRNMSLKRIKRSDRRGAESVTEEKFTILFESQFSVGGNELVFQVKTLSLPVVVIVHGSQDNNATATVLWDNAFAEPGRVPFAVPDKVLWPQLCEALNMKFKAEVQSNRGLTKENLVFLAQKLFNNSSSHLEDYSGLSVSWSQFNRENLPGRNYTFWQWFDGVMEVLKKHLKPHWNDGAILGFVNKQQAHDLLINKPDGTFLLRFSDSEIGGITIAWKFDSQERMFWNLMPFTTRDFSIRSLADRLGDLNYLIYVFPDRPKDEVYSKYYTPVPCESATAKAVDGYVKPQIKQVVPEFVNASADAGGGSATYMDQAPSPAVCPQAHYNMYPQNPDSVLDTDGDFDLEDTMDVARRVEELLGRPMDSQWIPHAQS

Question: For `CN(C)C(=O)CCN(C(=O)[C@@H]1CCCN1C(=O)[C@@H](NC(=O)c1cc2cc(C(F)(F)P(=O)(O)O)ccc2s1)C(C)(C)C)c1ccc2scnc2c1`, which Ki is on record?
Answer: 1.3 µM

Question: For `CC(C)(C)[C@H](NC(=O)c1cc2cc(C(F)(F)P(=O)(O)O)ccc2s1)C(=O)N1CCC[C@H]1C(=O)Nc1ccccc1`, which Ki is on record?
Answer: > 10 µM

Question: For `CN(C)C(=O)CCN(C(=O)[C@@H]1CCCN1C(=O)[C@@H](NC(=O)c1cc2cc(C(F)(F)P(=O)(O)O)ccc2s1)C(C)(C)C)c1cccc(Br)c1`, which Ki is on record?
Answer: 7 µM

Question: Which Ki does the source give for `CN(C)C(=O)CCN(C(=O)[C@@H]1CCCN1C(=O)[C@@H](NC(=O)c1cc2cc(C(F)(F)P(=O)(O)O)ccc2s1)C(C)(C)C)c1ccc2occc2c1` here?
Answer: 2 µM

Question: For `CN(C)C(=O)CCN(C(=O)[C@@H]1CCCN1C(=O)[C@@H](NC(=O)c1cc2cc(C(F)(F)P(=O)(O)O)ccc2s1)C(C)(C)C)c1ccc(Cl)cc1`, which Ki is on record?
Answer: 4.2 µM

Question: Which Ki does the source give for `CC(C)(C)[C@H](NC(=O)c1cc2cc(C(F)(F)P(=O)(O)O)ccc2s1)C(=O)N1CCC[C@H]1C(=O)N1CCCc2ccccc21` here?
Answer: 6.2 µM

Question: How did the Ki turn out when `CN(C(=O)[C@@H]1CCCN1C(=O)[C@@H](NC(=O)c1cc2cc(C(F)(F)P(=O)(O)O)ccc2s1)C(C)(C)C)c1ccccc1` was run?
Answer: 6.2 µM

Question: How did the Ki turn out when `CC(C)(C)[C@H](NC(=O)c1cc2cc(C(F)(F)P(=O)(O)O)ccc2s1)C(=O)N1CCC[C@H]1C(=O)N1CCC2(CCC2)C1` was run?
Answer: > 10 µM

Question: With `C/C(=C\C(=O)N[C@H](C(=O)N1CCC[C@H]1C(=O)N1CCCc2ccccc21)C(C)(C)C)c1ccc(C(F)(F)P(=O)(O)O)cc1` as the molecule, how does the Ki read?
Answer: > 10 µM

Question: How did the Ki turn out when `CN(C)C(=O)CCN(C(=O)[C@@H]1CCCN1C(=O)[C@@H](NC(=O)c1cc2cc(C(F)(F)P(=O)(O)O)ccc2s1)C(C)(C)C)c1ccccc1` was run?
Answer: 6.8 µM

Question: With `CC(C)(C)[C@H](NC(=O)c1cc2cc(C(F)(F)P(=O)(O)O)ccc2s1)C(=O)N1CCC[C@H]1C(=O)N1CCCOCC1` as the molecule, how does the Ki read?
Answer: > 10 µM

Question: With `CN(C)C(=O)CCN(C(=O)[C@@H]1CCCN1C(=O)[C@@H](NC(=O)c1cc2cc(C(F)(F)P(=O)(O)O)ccc2s1)C(C)(C)C)c1ccc(Br)cc1` as the molecule, how does the Ki read?
Answer: 2.1 µM

target: T2, Signal transducer and activator of transcription 5A (Homo sapiens, UniProt P42229); test: Induction of STAT5 degradation in human SKNO-1 cells measured for 18 hrs by Western blot analysis; type: cell-based
T2 sequence (P42229 whole entry): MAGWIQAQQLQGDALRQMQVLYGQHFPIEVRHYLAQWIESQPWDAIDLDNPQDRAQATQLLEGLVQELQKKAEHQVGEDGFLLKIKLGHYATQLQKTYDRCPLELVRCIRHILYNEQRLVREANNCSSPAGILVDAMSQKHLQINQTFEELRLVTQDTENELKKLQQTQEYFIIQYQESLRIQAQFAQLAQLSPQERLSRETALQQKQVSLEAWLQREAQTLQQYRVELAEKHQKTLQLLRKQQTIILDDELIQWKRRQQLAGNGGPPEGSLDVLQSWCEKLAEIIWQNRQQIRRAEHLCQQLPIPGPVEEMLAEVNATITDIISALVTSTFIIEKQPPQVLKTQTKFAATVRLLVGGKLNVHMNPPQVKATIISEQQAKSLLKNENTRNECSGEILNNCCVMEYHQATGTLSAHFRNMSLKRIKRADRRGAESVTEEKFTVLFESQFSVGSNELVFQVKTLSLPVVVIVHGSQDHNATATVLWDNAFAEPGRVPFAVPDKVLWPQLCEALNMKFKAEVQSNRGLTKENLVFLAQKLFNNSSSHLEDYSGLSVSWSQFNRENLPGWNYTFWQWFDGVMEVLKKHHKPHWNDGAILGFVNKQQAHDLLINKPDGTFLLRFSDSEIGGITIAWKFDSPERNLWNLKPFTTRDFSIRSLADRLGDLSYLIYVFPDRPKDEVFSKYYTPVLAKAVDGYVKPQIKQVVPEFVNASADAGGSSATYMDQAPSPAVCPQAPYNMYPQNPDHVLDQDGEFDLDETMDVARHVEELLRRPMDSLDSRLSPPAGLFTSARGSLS

Question: For `CC(C)(C)[C@H](NC(=O)c1cc2cc(C(F)(F)P(=O)(O)O)ccc2s1)C(=O)N1CCC[C@H]1C(=O)N(CCC(=O)NCCCC#Cc1cccc2c1CN(C1CCC(=O)NC1=O)C2=O)c1ccc2occc2c1` (stereo not given in full), which DC50 is on record?
Answer: 330 nM

Question: `CC(C)(C)[C@H](NC(=O)c1cc2cc(C(F)(F)P(=O)(O)O)ccc2s1)C(=O)N1CCC[C@H]1C(=O)N(CCC(=O)NCCCC#Cc1cccc2c1CN(C1CCC(=O)NC1=O)C2=O)c1ccc(C#N)cc1` (stereo not given in full) was tested. Which DC50 did it give?
Answer: > 5000 nM

Question: For `CC(C)(C)[C@H](NC(=O)c1cc2cc(C(F)(F)P(=O)(O)O)ccc2s1)C(=O)N1CCC[C@H]1C(=O)N(CCC(=O)NCCCC#Cc1cccc2c1CN(C1CCC(=O)NC1=O)C2=O)c1ccccc1` (stereo not given in full), which DC50 is on record?
Answer: > 5000 nM

Question: Which DC50 does the source give for `CC(C)(C)[C@H](NC(=O)c1cc2cc(C(F)(F)P(=O)(O)O)ccc2s1)C(=O)N1CCC[C@H]1C(=O)N(CCC(=O)NCCCC#Cc1cccc2c1CN(C1CCC(=O)NC1=O)C2=O)c1ccc(Cl)cc1` (stereo not given in full) here?
Answer: 2100 nM

Question: `CC(C)(C)[C@H](NC(=O)c1cc2cc(C(F)(F)P(=O)(O)O)ccc2s1)C(=O)N1CCC[C@H]1C(=O)N(CCC(=O)NCCCC#Cc1cccc2c1CN(C1CCC(=O)NC1=O)C2=O)c1cccc(C#N)c1` (stereo not given in full) was tested. Which DC50 did it give?
Answer: > 5000 nM

Question: Which DC50 does the source give for `CC(C)(C)[C@H](NC(=O)c1cc2cc(C(F)(F)P(=O)(O)O)ccc2s1)C(=O)N1CCC[C@H]1C(=O)N(CCC(=O)NCCCC#Cc1cccc2c1CN(C1CCC(=O)NC1=O)C2=O)c1ccc(S(C)(=O)=O)cc1` (stereo not given in full) here?
Answer: > 5000 nM

Question: For `CC(C)(C)[C@H](NC(=O)c1cc2cc(C(F)(F)P(=O)(O)O)ccc2s1)C(=O)N1CCC[C@H]1C(=O)N(CCC(=O)NCCCC#Cc1cccc2c1CN(C1CCC(=O)NC1=O)C2=O)c1ccc(Cl)c(F)c1` (stereo not given in full), which DC50 is on record?
Answer: > 5000 nM

Question: How did the DC50 turn out when `CN(CCCC#Cc1cccc2c1CN(C1CCC(=O)NC1=O)C2=O)C(=O)CCN(C(=O)[C@@H]1CCCN1C(=O)[C@@H](NC(=O)c1cc2cc(C(F)(F)P(=O)(O)O)ccc2s1)C(C)(C)C)c1ccc2sccc2c1` (stereo not given in full) was run?
Answer: 130 nM

Question: For `CC(C)(C)[C@H](NC(=O)c1cc2cc(C(F)(F)P(=O)(O)O)ccc2s1)C(=O)N1CCC[C@H]1C(=O)N(CCC(=O)NCCCC#Cc1cccc2c1CN(C1CCC(=O)NC1=O)C2=O)c1ccc2ncsc2c1` (stereo not given in full), which DC50 is on record?
Answer: > 5000 nM

Question: Which DC50 does the source give for `CC(C)(C)[C@H](NC(=O)c1cc2cc(C(F)(F)P(=O)(O)O)ccc2s1)C(=O)N1CCC[C@H]1C(=O)N(CCC(=O)NCCCC#Cc1cccc2c1CN(C1CCC(=O)NC1=O)C2=O)c1ccc(C(F)(F)F)cc1` (stereo not given in full) here?
Answer: 2000 nM

Question: `CC(C)(C)[C@H](NC(=O)c1cc2cc(C(F)(F)P(=O)(O)O)ccc2s1)C(=O)N1CCC[C@H]1C(=O)N(CCC(=O)NCCCC#Cc1cccc2c1CN(C1CCC(=O)NC1=O)C2=O)c1ccc2ccccc2c1` (stereo not given in full) was tested. Which DC50 did it give?
Answer: 210 nM

Question: How did the DC50 turn out when `CC(C)(C)[C@H](NC(=O)c1cc2cc(C(F)(F)P(=O)(O)O)ccc2s1)C(=O)N1CCC[C@H]1C(=O)N(CCC(=O)NCCCC#Cc1cccc2c1CN(C1CCC(=O)NC1=O)C2=O)c1cccc2sccc12` (stereo not given in full) was run?
Answer: > 5000 nM

Question: `CN(CCCC#Cc1cccc2c1CN(C1CCC(=O)NC1=O)C2=O)C(=O)CCN(C(=O)[C@@H]1CCCN1C(=O)[C@@H](NC(=O)c1cc2cc(C(F)(F)P(=O)(O)O)ccc2s1)C(C)(C)C)c1ccc2scnc2c1` (stereo not given in full) was tested. Which DC50 did it give?
Answer: 330 nM

Question: With `CC(C)(C)[C@H](NC(=O)c1cc2cc(C(F)(F)P(=O)(O)O)ccc2s1)C(=O)N1CCC[C@H]1C(=O)N(CCC(=O)NCCCC#Cc1cccc2c1CN(C1CCC(=O)NC1=O)C2=O)c1cccc(C(F)(F)F)c1` (stereo not given in full) as the molecule, how does the DC50 read?
Answer: > 5000 nM

Question: With `CC(C)(C)[C@H](NC(=O)c1cc2cc(C(F)(F)P(=O)(O)O)ccc2s1)C(=O)N1CCC[C@H]1C(=O)N(CCC(=O)NCCCC#Cc1cccc2c1CN(C1CCC(=O)NC1=O)C2=O)c1ccc(F)cc1` (stereo not given in full) as the molecule, how does the DC50 read?
Answer: > 5000 nM

Question: `CC(C)(C)c1ccc(N(CCC(=O)NCCCC#Cc2cccc3c2CN(C2CCC(=O)NC2=O)C3=O)C(=O)[C@@H]2CCCN2C(=O)[C@@H](NC(=O)c2cc3cc(C(F)(F)P(=O)(O)O)ccc3s2)C(C)(C)C)cc1` (stereo not given in full) was tested. Which DC50 did it give?
Answer: > 5000 nM

Question: How did the DC50 turn out when `CN(CCCC#Cc1cccc2c1CN(C1CCC(=O)NC1=O)C2=O)C(=O)CCN(C(=O)[C@@H]1CCCN1C(=O)[C@@H](NC(=O)c1cc2cc(C(F)(F)P(=O)(O)O)ccc2s1)C(C)(C)C)c1ccc2ccccc2c1` (stereo not given in full) was run?
Answer: 130 nM

Question: Which DC50 does the source give for `Cc1ccc(N(CCC(=O)NCCCC#Cc2cccc3c2CN(C2CCC(=O)NC2=O)C3=O)C(=O)[C@@H]2CCCN2C(=O)[C@@H](NC(=O)c2cc3cc(C(F)(F)P(=O)(O)O)ccc3s2)C(C)(C)C)cc1` (stereo not given in full) here?
Answer: 310 nM

Question: How did the DC50 turn out when `CN(CCCC#Cc1cccc2c1CN(C1CCC(=O)NC1=O)C2=O)C(=O)CCN(C(=O)[C@@H]1CCCN1C(=O)[C@@H](NC(=O)c1cc2cc(C(F)(F)P(=O)(O)O)ccc2s1)C(C)(C)C)c1ccc2occc2c1` (stereo not given in full) was run?
Answer: 200 nM

Question: How did the DC50 turn out when `CC(C)(C)[C@H](NC(=O)c1cc2cc(C(F)(F)P(=O)(O)O)ccc2s1)C(=O)N1CCC[C@H]1C(=O)N(CCC(=O)NCCCC#Cc1cccc2c1CN(C1CCC(=O)NC1=O)C2=O)c1ccc(-c2cccs2)cc1` (stereo not given in full) was run?
Answer: 210 nM

Question: `CC(C)(C)[C@H](NC(=O)c1cc2cc(C(F)(F)P(=O)(O)O)ccc2s1)C(=O)N1CCC[C@H]1C(=O)N(CCC(=O)NCCCC#Cc1cccc2c1CN(C1CCC(=O)NC1=O)C2=O)c1ccc(-c2nccs2)cc1` (stereo not given in full) was tested. Which DC50 did it give?
Answer: 130 nM

Question: How did the DC50 turn out when `CC(C)(C)[C@H](NC(=O)c1cc2cc(C(F)(F)P(=O)(O)O)ccc2s1)C(=O)N1CCC[C@H]1C(=O)N(CCC(=O)NCCCC#Cc1cccc2c1CN(C1CCC(=O)NC1=O)C2=O)c1ccc(I)cc1` (stereo not given in full) was run?
Answer: 530 nM

Question: With `CC(C)(C)[C@H](NC(=O)c1cc2cc(C(F)(F)P(=O)(O)O)ccc2s1)C(=O)N1CCC[C@H]1C(=O)N(CCCCCCCC#Cc1cccc2c1CN(C1CCC(=O)NC1=O)C2=O)c1ccc(-c2nccs2)cc1` (stereo not given in full) as the molecule, how does the DC50 read?
Answer: > 5000 nM
